Data published in patent US5179122A, “Nutritional supplement containing Vitamin E” (priority 1991, dated 1993).
Like-named read-outs stand apart in the source and are kept apart here. One block for each compound: values may come before it.

Assays:
[1] = Melt temperature of VEA/Myvatex Texture Lite blends by differential scanning calorimetry; type: physicochemical; settings: VEA/Myvatex Texture Lite (wt. %); DSC
Excerpt: This example illustrates the affect of Myvatex Texture Lite food emulsifier on the melt temperature of VEA. The solid blend was formulated as described in Example 2.

[2] = some species; even in water dispersible forms; cited from earlier work
[3] = rats; aqueous lecithin dispersed, containing medium chain triglycerides; cited from earlier work
[4] = Melt temperature of VEA/TPGS blends by differential scanning calorimetry; type: physicochemical
Method: In this example, miscibility of the blends was investigated by determining the melt temperature of various blend ratios. […] The mixture was heated and blended to a homogeneous blend and cooled to room temperature. The melting point of each blend was determined by differential scanning calorimetry.

[5] = 3% aqueous solution of Tween-80; cited from earlier work
[6] = zoo animals; remaining excreted unchanged; cited from earlier work
[7] = horses; 0, 200, 600, 1800 and 5400 mg daily; cited from earlier work
[8] = solubilized in medium-chain triglycerides; cited from earlier work
[9] = same patients; tocopherol in vegetable oil; cited from earlier work
[10] = human, in vivo, po; cited from earlier work

- Melt Temperature [1]: 2.9 °C
- Melt Temperature ([4]; VEA/TPGS (wt. %), DSC): 2.9 °C
- TPGS required to solidify VEA ([4]; at room temperature): 25%
Compound: CC(=O)Oc1c(C)c(C)c2c(c1C)CCC(C)(CCC[C@H](C)CCC[C@H](C)CCCC(C)C)O2 (mixture of isomers) [VEA, d- or dl-alpha-tocopheryl acetate]
- bioavailability [2]: not bioavailable
- absorption of tocopherol [3]: enhanced absorption
- absorption rate relative to vegetable oil solution of VEA [5]: twice the rate

Compound: CC(=O)Oc1c(C)c(C)c2c(c1C)CCC(C)(CCCC(C)CCCC(C)CCCC(C)C)O2 (racemic) [dl-alpha-tocopheryl acetate]
- administered tocopherol absorbed [6]: one-half
- serum tocopherol levels with increasing dosage [7]: increased almost linearly

Compound: Cc1c(C)c2c(c(C)c1O)CCC(C)(CCCC(C)CCCC(C)CCCC(C)C)O2 (stereo not drawn) [tocopherol, alpha-tocopherol]
- absorption of tocopherol [8]: enhanced absorption
- increase of tocopherol in the blood [9]: no significant increase
- bioavailability [2]: not bioavailable

Compound: Vitamin A
- absorption [10]: enhanced absorption

Compound: Vitamin E
- absorption [10]: enhanced absorption
